Experimental data as given in ChEMBL document CHEMBL3885881, “DrugMatrix”.

Organism: Rattus norvegicus
Experiment: DrugMatrix - Regimen: Daily Repeat
Type: toxicity, organism-based, Sprague-Dawley
Parameters: regimen Daily Repeat, gender Male, age 6-8 weeks
Conditions: in vivo, po, route oral GAVAGE, […]; for ABSOLUTE BASOPHIL / BASOPHIL / EOSINOPHIL / ERYTHROCYTE COUNT / HEMATOCRIT / HEMOGLOBIN / LEUKOCYTE COUNT / LYMPHOCYTE / MEAN CORPUSCULAR HEMOGLOBIN / MEAN CORPUSCULAR HEMOGLOBIN CONCENTRATION / MEAN CORPUSCULAR VOLUME / MONOCYTE / NEUTROPHIL / PLATELET COUNT: tissue Blood
[1] = 30 mg/kg, 120 h, tissue Plasma, dose level Low, time 5 day
[2] = 35 mg/kg, 72 h, dose level Low, time 3 day
[3] = 35 mg/kg, 72 h, tissue Plasma, dose level Low, time 3 day
[4] = 35 mg/kg, 120 h, dose level Low, time 5 day
[5] = 35 mg/kg, 120 h, tissue Plasma, dose level Low, time 5 day
[6] = 400 mg/kg, 72 h, dose level High, time 3 day
[7] = 400 mg/kg, 72 h, tissue Plasma, dose level High, time 3 day
[8] = 400 mg/kg, 120 h, dose level High, time 5 day
[9] = 400 mg/kg, 120 h, tissue Plasma, dose level High, time 5 day

## Cc1ccc(-c2cc(C(F)(F)F)nn2-c2ccc(S(N)(=O)=O)cc2)cc1 [CELECOXIB]
[1]
  ALBUMIN: 3.93 G/DL
  ALKALINE PHOSPHATASE: 354.33 u/L
  ASPARTATE AMINOTRANSFERASE: 82.67 u/L
  BLOOD UREA NITROGEN: 10.67 mg/dL
  CARBON DIOXIDE: 25 mmol/L
  CHLORIDE: 101 MEQ/L
  CHOLESTEROL: 56.33 mg/dL
  CREATINE PHOSPHOKINASE: 247 u/L
  CREATININE: 0.12 mg/dL
  GLUCOSE: 191.67 mg/dL
  LACTATE DEHYDROGENASE: 107 u/L
  LIPASE: 6.33 u/L
  PHOSPHORUS: 12.27 mg/dL
  POTASSIUM: 5.29 MEQ/L
  SODIUM: 142.9 MEQ/L
  TOTAL BILIRUBIN: 0.2 mg/dL
  TOTAL PROTEIN: 5.8 G/DL
  URIC ACID: 1.67 mg/dL
[2]
  ABSOLUTE BASOPHIL: 23.3 cells/µL
  BASOPHIL: 0.2%
  EOSINOPHIL: 0.57%
  ERYTHROCYTE COUNT: 6.93 x10E6/uL
  HEMATOCRIT: 43.8%
  HEMOGLOBIN: 14.23 G/DL
  LEUKOCYTE COUNT: 11.06 x10E3/uL
  LYMPHOCYTE: 78.9%
  MEAN CORPUSCULAR HEMOGLOBIN: 20.57 pg
  MEAN CORPUSCULAR HEMOGLOBIN CONCENTRATION: 32.53 G/DL
  MEAN CORPUSCULAR VOLUME: 63.27 fL
  MONOCYTE: 2.2%
  NEUTROPHIL: 16.8%
  PLATELET COUNT: 1233.67 x10E3/uL
[3]
  ALANINE AMINOTRANSFERASE: 48 u/L
  ALBUMIN: 3.53 G/DL
  ALKALINE PHOSPHATASE: 409.67 u/L
  ASPARTATE AMINOTRANSFERASE: 65 u/L
  BLOOD UREA NITROGEN: 10.33 mg/dL
  CHLORIDE: 105.67 MEQ/L
  CHOLESTEROL: 68.67 mg/dL
  CREATINE PHOSPHOKINASE: 192.67 u/L
  CREATININE: 0.37 mg/dL
  GLUCOSE: 180 mg/dL
  PHOSPHORUS: 12.47 mg/dL
  POTASSIUM: 6.47 MEQ/L
  SODIUM: 146.67 MEQ/L
  TOTAL BILIRUBIN: 0.43 mg/dL
  TOTAL PROTEIN: 5.63 G/DL
[4]
  ABSOLUTE BASOPHIL: 56.7 cells/µL
  BASOPHIL: 0.5%
  EOSINOPHIL: 0.17%
  ERYTHROCYTE COUNT: 6.92 x10E6/uL
  HEMATOCRIT: 43.47%
  HEMOGLOBIN: 14.1 G/DL
  LEUKOCYTE COUNT: 12.56 x10E3/uL
  LYMPHOCYTE: 82.3%
  MEAN CORPUSCULAR HEMOGLOBIN: 20.4 pg
  MEAN CORPUSCULAR HEMOGLOBIN CONCENTRATION: 32.43 G/DL
  MEAN CORPUSCULAR VOLUME: 62.8 fL
  MONOCYTE: 1.9%
  NEUTROPHIL: 13.9%
  PLATELET COUNT: 1178.33 x10E3/uL
[5]
  ALANINE AMINOTRANSFERASE: 42 u/L
  ALBUMIN: 3.57 G/DL
  ALKALINE PHOSPHATASE: 324.67 u/L
  ASPARTATE AMINOTRANSFERASE: 63.67 u/L
  BLOOD UREA NITROGEN: 9.67 mg/dL
  CHLORIDE: 103 MEQ/L
  CHOLESTEROL: 76.67 mg/dL
  CREATINE PHOSPHOKINASE: 179.33 u/L
  CREATININE: 0.37 mg/dL
  GLUCOSE: 187.33 mg/dL
  PHOSPHORUS: 11.8 mg/dL
  POTASSIUM: 6.73 MEQ/L
  SODIUM: 146 MEQ/L
  TOTAL BILIRUBIN: 0.33 mg/dL
  TOTAL PROTEIN: 5.9 G/DL
[6]
  ABSOLUTE BASOPHIL: 30 cells/µL
  BASOPHIL: 0.27%
  EOSINOPHIL: 0.6%
  ERYTHROCYTE COUNT: 6.71 x10E6/uL
  HEMATOCRIT: 42.57%
  HEMOGLOBIN: 14.27 G/DL
  LEUKOCYTE COUNT: 12.22 x10E3/uL
  LYMPHOCYTE: 70.53%
  MEAN CORPUSCULAR HEMOGLOBIN: 21.27 pg
  MEAN CORPUSCULAR HEMOGLOBIN CONCENTRATION: 33.53 G/DL
  MEAN CORPUSCULAR VOLUME: 63.47 fL
  MONOCYTE: 3.27%
  NEUTROPHIL: 24.33%
  PLATELET COUNT: 1571.33 x10E3/uL
[7]
  ALANINE AMINOTRANSFERASE: 62 u/L
  ALBUMIN: 3.4 G/DL
  ALKALINE PHOSPHATASE: 437.67 u/L
  ASPARTATE AMINOTRANSFERASE: 74.67 u/L
  BLOOD UREA NITROGEN: 9.33 mg/dL
  CHLORIDE: 106.67 MEQ/L
  CHOLESTEROL: 88.33 mg/dL
  CREATINE PHOSPHOKINASE: 191.67 u/L
  CREATININE: 0.33 mg/dL
  GLUCOSE: 177.33 mg/dL
  PHOSPHORUS: 12.6 mg/dL
  POTASSIUM: 6.63 MEQ/L
  SODIUM: 145 MEQ/L
  TOTAL BILIRUBIN: 0.33 mg/dL
  TOTAL PROTEIN: 5.53 G/DL
[8]
  ABSOLUTE BASOPHIL: 190 cells/µL
  BASOPHIL: 1.28%
  EOSINOPHIL: 0.3%
  ERYTHROCYTE COUNT: 6.61 x10E6/uL
  HEMATOCRIT: 42.7%
  HEMOGLOBIN: 13.26 G/DL
  LEUKOCYTE COUNT: 18.19 x10E3/uL
  LYMPHOCYTE: 68.98%
  MEAN CORPUSCULAR HEMOGLOBIN: 20.16 pg
  MEAN CORPUSCULAR HEMOGLOBIN CONCENTRATION: 31.14 G/DL
  MEAN CORPUSCULAR VOLUME: 64.7 fL
  MONOCYTE: 2.54%
  NEUTROPHIL: 25.24%
  PLATELET COUNT: 1512.2 x10E3/uL
[9]
  ALANINE AMINOTRANSFERASE: 41.6 u/L
  ALBUMIN: 3.44 G/DL
  ALKALINE PHOSPHATASE: 451.2 u/L
  ASPARTATE AMINOTRANSFERASE: 64.8 u/L
  BLOOD UREA NITROGEN: 11.2 mg/dL
  CHLORIDE: 105.8 MEQ/L
  CHOLESTEROL: 91.6 mg/dL
  CREATINE PHOSPHOKINASE: 166.4 u/L
  CREATININE: 0.34 mg/dL
  GLUCOSE: 185.8 mg/dL
  PHOSPHORUS: 12.94 mg/dL
  POTASSIUM: 7.1 MEQ/L
  SODIUM: 151 MEQ/L
  TOTAL BILIRUBIN: 0.2 mg/dL
  TOTAL PROTEIN: 5.9 G/DL
